Activity calls are given as the source filed them. No rule for the calls is given here.
These molecules were tested on Jurkat NF-kB reporter, TCR-induced, luciferase luminescence (assay: inhibitors of TCR-driven NF-kB activation, dose response, Jurkat cells, luminescence (AID 489035)).
In the case of `O=c1cc(-c2ccccc2)[nH]c2ccccc12`, the IC50 is reported as > 80 µM (inactive). Work on `CCN(CC)c1ccc2nc3ccc(N)cc3[n+](-c3ccccc3)c2c1` yielded an IC50 of 2.62 µM. `CCOc1cccc(/C=N/Nc2ccc(S(=O)(=O)N(CC)CC)cn2)c1O` was tested, and the IC50 was 21.8 µM (inactive). `CCS(=O)(=O)c1ncc(Cl)c(C(=O)Nc2ccc(S(=O)(=O)N(C)c3ccccc3)cc2)n1` gave an IC50 of 0.8 µM. With `CCCCOc1ccccc1C1CC(=O)NC2=C1C(=O)CCC2` (centres undefined) the IC50 was > 80 µM (inactive). With `CCN(CC)c1ccc(-c2nn3c(-c4n[nH]c5c4CCC5)nnc3s2)cc1` the IC50 was 47.1 µM (inactive). `CCC(O)C1CCN(C(=O)c2cc(COc3ccc4ncccc4c3)on2)CC1` (centres undefined) was tested, and the IC50 was 0.69 µM. In the case of `Cc1ccc2c(c1)sc(-c1ccc(N(C)C)cc1)[n+]2C`, the IC50 is reported as > 80 µM (inactive). For `CCOc1ccccc1C(=O)N1CCN(c2cccc(Cl)c2)CC1`, the IC50 was > 80 µM (inactive). Molecule `O[C@@H]1[C@@H](O)C=C2CCN3Cc4cc5c(cc4[C@H]1C23)OCO5` (some centres undefined) has an IC50 of 0.84 µM. With `COc1ccc(CS(=O)/C(Cl)=C(/Cl)C(=O)Nc2ccc(OC)nc2)cc1` (centres undefined) the IC50 was 0.54 µM. For `O=[N+]([O-])c1ccc(-c2nc(C(Cl)Cl)c3ccccc3n2)cc1`, the IC50 was 1.12 µM. For `C=CCOC(=O)c1[nH]c2c(c1C)C(=O)CC(c1ccco1)C2` (centres undefined), the IC50 was > 80 µM (inactive). With `CCOc1cc(C#N)c(NC(=O)c2cccnc2)cc1OCC` the IC50 was > 80 µM (inactive). For `COC(=O)Nc1ccc(S(=O)(=O)N2CCCc3ccccc32)cc1`, the IC50 was > 80 µM (inactive). In the case of `CC(=O)O[C@H]1C(=O)[C@]2(C)[C@H]([C@H](OC(=O)c3ccccc3)[C@]3(O)C[C@H](OC(=O)[C@H](O)[C@@H](NC(=O)c4ccccc4)c4ccccc4)C(C)=C1C3(C)C)[C@]1(OC(C)=O)CO[C@@H]1C[C@@H]2O`, the IC50 is reported as 0.51 µM. `COc1cccc(N/C(N)=N/c2nc(CSc3ccccn3)cc(=O)[nH]2)c1` was tested, and the IC50 was 4.67 µM. `Cc1noc(C)c1COc1cccc(C(=O)OCC(=O)N2CC(=O)Nc3ccccc32)c1` was tested, and the IC50 was > 80 µM (inactive). In the case of `CCOC(=O)c1c(C)[nH]c(C(=O)N/N=C/c2ccc(Br)cc2)c1C`, the IC50 is reported as 9.36 µM. In the case of `CCOc1ccc(Br)cc1C1=CC(=O)C[C@H](c2ccc(OC)cc2)C1`, the IC50 is reported as > 80 µM (inactive). `O=C1C=C(c2ccc3ncccc3c2)C[C@@H](c2ccc3c(c2)OCO3)C1` was tested, and the IC50 was > 80 µM (inactive). With `CCOC(=O)c1ccc(NC(=O)Cn2cnc3cc(C)c(C)cc32)cc1` the IC50 was > 80 µM (inactive). With `Cc1ccc(C(=O)c2cc([N+](=O)[O-])ccc2N2CCOCC2)c(C)c1` the IC50 was 54.5 µM (inactive). For `Cc1ccc(O)c(NC(=O)CCC2CCCCC2)c1`, the IC50 was > 80 µM (inactive). Work on `C=CCNC(=S)N/N=C(\C)c1ccccn1` yielded an IC50 of 1.09 µM. In the case of `C[C@]12CC[C@H]3[C@@H](CC[C@]4(O)C[C@@H](O)CC[C@]34C=O)[C@@]1(O)CC[C@@H]2C1=CC(=O)OC1`, the IC50 is reported as 68.9 µM (inactive). For `COc1ccc(C)c(Cn2c(-c3nonc3N)nc3ccccc32)c1`, the IC50 was > 80 µM (inactive). For `Cc1nnc(N/N=C/c2ccccn2)[nH]c1=O`, the IC50 was 1.18 µM. For `COc1cc(-c2c(-c3cc(OC)c(OC)c(OC)c3)noc2C)ccc1F`, the IC50 was 31.6 µM (inactive). In the case of `O=C(c1ccc(CS(=O)c2ccccc2Cl)o1)N1CCN(c2ccccn2)CC1` (centres undefined), the IC50 is reported as 68.2 µM (inactive). With `COc1ccccc1CNS(=O)(=O)c1ccc(-c2cc(C)no2)cc1` the IC50 was > 80 µM (inactive). Work on `Cc1ccc(C(=O)O/N=C(\N)c2ccccn2)c(Cl)c1` yielded an IC50 of 1.11 µM. In the case of `CCN(CC)c1ccc(/C=C/c2ccc3ccc(OC)cc3[n+]2CC)cc1`, the IC50 is reported as 51.9 µM (inactive). `COc1cc(C(=O)OCCc2cc3ccccc3c(=O)o2)cc(OC)c1OC` was tested, and the IC50 was 21.6 µM (inactive). `COC(=O)c1cn(NC(=O)c2cc([N+](=O)[O-])ccc2F)c(=O)c2ccccc12` showed an IC50 of 0.46 µM. `CC1=C(C(=O)OCc2ccc3c(c2)OCO3)C(c2ccc(Cl)cc2)NC(=O)N1` (centres undefined) was tested, and the IC50 was 0.63 µM. Molecule `CC(=O)N(C)C1=C(N2CCOCC2)C(=O)c2ccccc2C1=O` has an IC50 of 9.87 µM. With `COc1ccc2c(c1)/C(=C/c1cnc[nH]1)C(=O)N2` the IC50 was 6.51 µM. With `CC(C)(C)c1ccc(C(=O)O/N=C(\N)c2ccccn2)cc1` the IC50 was 9.45 µM. `Cc1ccc(NS(=O)(=O)c2ccc(-c3cnc(C4CC4)o3)cc2)c(C)c1` showed an IC50 of 14.8 µM. `CCn1c(C)cc(C(=O)CN2C(=O)c3ccccc3S2(=O)=O)c1C` gave an IC50 of 1.68 µM. `COc1cccc(/C=N/Nc2ncnc3scc(-c4ccccc4)c23)c1O` was tested, and the IC50 was 1.26 µM. `COc1cccc(N2CCN(C(=O)c3cn(Cc4ccccc4)nc3-c3cccnc3)CC2)c1` was tested, and the IC50 was > 80 µM (inactive). For `COCCn1c(C)cc(C2=NNC(=Nc3ccccc3F)SC2)c1C`, the IC50 was 64.3 µM (inactive). For `Cn1nc(C(C)(C)C)cc1C(=O)NCc1cc(F)cc2c1OCOC2`, the IC50 was > 80 µM (inactive). In the case of `CC(C)(C)c1cc(C=C(C#N)C#N)cc(C(C)(C)C)c1O`, the IC50 is reported as > 80 µM (inactive). `Cc1cccc(N2CCN(C(=O)c3c(-c4ccccc4)noc3C)CC2)c1C` was tested, and the IC50 was > 80 µM (inactive). In the case of `Cc1cccc(N2CCN(C(=O)c3ccc(CS(=O)(=O)c4ccccc4C)o3)CC2C)c1` (centres undefined), the IC50 is reported as 9.62 µM. With `Cc1ccc(C)c(N=Nc2ccc(O)c3ncccc23)c1` the IC50 was 28.3 µM (inactive).
